# Laboratory results taken from ChEMBL document CHEMBL1201862, “PubChem BioAssay data set” (2004).
# Active and inactive are the calls of the source.
# Columns and labels:
# [1] = target: ATP-dependent translocase ABCB1 (Homo sapiens, UniProt P08183); assay: inhibition of P-gp mediated JC-1 efflux – Jurkat-DNR cells, flow cytometry, dose response (AID 1689); assay type: functional
# [2] = target: Broad substrate specificity ATP-binding cassette transporter ABCG2 (Homo sapiens, UniProt Q9UNQ0); assay: blockers of JC-1 export by ABCG2 – Ig-MXP3 cells, flow cytometry, dose response (AID 1690); assay type: functional
# A549 = assay: viability loss in A549 cells – cell-based, plate reader, cherry-pick samples, cytotoxicity control, dose response (AID 687028); assay type: functional; conditions: Homo sapiens
# Beta-galactosidase = Beta-galactosidase (Escherichia coli, UniProt Q8VNN2); assay: detection-enzyme interference by beta-gal modulators – biochemical, E. coli enzyme, set 3, artefact control for CCR6 antagonist project, dose response (AID 504712); assay type: functional
# [3] = target: Heat shock protein HSP 90-alpha (Homo sapiens, UniProt P07900); assay type: functional, organism-based
# [4] = target: Nucleotide-binding oligomerization domain-containing protein 2 (Homo sapiens, UniProt Q9HC29); assay: inhibition of NOD2-driven NF-kB reporter – cell-based, luminescence, uHTS, HEK293 (AID 1566); assay type: functional
# HEK293 [5] = assay: NOD2 signaling inhibitors in MDP-stimulated cells, cell-based, uHTS, luminescence (AID 2001); assay type: functional; conditions: Homo sapiens
# Beta Lactamase = Beta Lactamase (Pseudomonas aeruginosa, UniProt Q932Y6); assay: BLA reporter interference, concentration series – BLA reporter cells, FRET fluorescence, artefact control for TLR9-MyD88 binding inhibitor project, dose response (AID 588341); assay type: cell-based;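 note: cell based assay in CHO-K1 cells stably expressing beta-lactamase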
# Protein RecA = target: T1, Protein RecA (Mycobacterium tuberculosis, UniProt P9WHJ3); assay: Fluorescence Cell-Free Homogeneous Dose Retest to Identify Inhibitors of RecA-Intein Splicing Activity. [Related pubchem assays (depositor defined):AID2097, AID2223, AID489010, AID492950]; assay type: functional
# T1 sequence (P9WHJ3 whole entry): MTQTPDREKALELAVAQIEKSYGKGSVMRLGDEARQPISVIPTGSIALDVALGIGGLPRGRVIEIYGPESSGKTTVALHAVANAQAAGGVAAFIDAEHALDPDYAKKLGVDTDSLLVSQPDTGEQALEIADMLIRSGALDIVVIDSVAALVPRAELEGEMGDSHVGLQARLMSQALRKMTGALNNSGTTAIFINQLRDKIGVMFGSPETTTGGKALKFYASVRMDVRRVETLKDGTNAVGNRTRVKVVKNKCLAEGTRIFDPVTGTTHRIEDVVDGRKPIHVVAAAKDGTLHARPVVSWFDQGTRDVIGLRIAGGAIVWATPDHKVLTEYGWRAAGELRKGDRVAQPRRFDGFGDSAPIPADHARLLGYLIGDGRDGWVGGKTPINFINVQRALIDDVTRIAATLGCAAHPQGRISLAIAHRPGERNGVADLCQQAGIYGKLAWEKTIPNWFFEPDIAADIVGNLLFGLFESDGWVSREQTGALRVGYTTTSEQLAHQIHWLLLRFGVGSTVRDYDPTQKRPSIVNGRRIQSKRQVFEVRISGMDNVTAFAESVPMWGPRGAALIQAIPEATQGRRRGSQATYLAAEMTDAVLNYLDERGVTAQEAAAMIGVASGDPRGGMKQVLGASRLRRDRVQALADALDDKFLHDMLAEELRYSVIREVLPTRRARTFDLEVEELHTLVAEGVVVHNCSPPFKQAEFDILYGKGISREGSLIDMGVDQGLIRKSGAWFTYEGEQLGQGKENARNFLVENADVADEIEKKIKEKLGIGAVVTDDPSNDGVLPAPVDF
# [6] = loss of viability in HepG2 cells – cell-based, CellTiter-Glo, cherry-picked, cytotoxicity control for Shn3 inhibitor project, dose response (AID 624134); assay type: functional
# [7] = reduction of Shn3 3'UTR-driven luciferase in osteoblasts – cell-based, Clone20 osteoblasts, firefly luciferase, cherry-picked, dose response (AID 624132); assay type: functional;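 note: firefly luciferase luminescence from reporter carrying the Shn3 3'UTR in osteoblasts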
# [8] = Luminescence Cell-Based Dose Retest to Confirm Inhibitors of Cancer Stem Cells. [Related pubchem assays (depositor defined):AID2717, AID2721]; assay type: functional; conditions: Homo sapiens
# [9] = target: ATP-binding cassette sub-family B member 6 (Homo sapiens, UniProt Q9NP58); assay: ABCB6 transporter inhibitors, porphyrin accumulation, dose response, flow cytometry, K562-ABCB6 cells, cherry pick 02 (AID 624487); assay type: functional; conditions: read-out: EC50_MICROM
# HEK293 [10] = assay: cells; assay type: functional, cell-based; conditions: Homo sapiens
# Apelin receptor = Apelin receptor (Homo sapiens, UniProt P35414); assay: apelin receptor antagonists, arrestin read-out – cell-based, luminescent, enzyme-fragment complementation, selectivity assay for CCR6 antagonist project, SAR follow-up (AID 588359); assay type: functional
# CHO = CHO cell viability loss, potency – luminescence, cytotoxicity control for TLR9-MyD88 binding inhibitor project, dose response (AID 588339); assay type: functional, cell-based, hamster; conditions: Cricetulus griseus;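 note: CHO cells stably coexpressing TLR9 and MyD88 fusions from primary screen; compound exposure lasted 48 hours before viability readout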
# [11] = non-specific 3'UTR reporter inhibition in Clone20-Shn3RL – cell-based, Renilla luciferase, cherry-picked, counter-screen for Shn3 inhibitor project, dose response (AID 624133); assay type: functional
# HEK293 [12] = assay: inhibition of NOD1-driven NF-kB reporter – cell-based, luminescence, uHTS, primary screen (AID 1578); assay type: functional; conditions: Homo sapiens
# [13] = target: T2, Replicative DNA helicase DnaB (Mycobacterium tuberculosis, UniProt P9WMR3); assay: DnaB intein splicing inhibitors, dose response, biochemical, cell-free fluorescence (AID 449749); assay type: functional
# T2 sequence (P9WMR3 whole entry): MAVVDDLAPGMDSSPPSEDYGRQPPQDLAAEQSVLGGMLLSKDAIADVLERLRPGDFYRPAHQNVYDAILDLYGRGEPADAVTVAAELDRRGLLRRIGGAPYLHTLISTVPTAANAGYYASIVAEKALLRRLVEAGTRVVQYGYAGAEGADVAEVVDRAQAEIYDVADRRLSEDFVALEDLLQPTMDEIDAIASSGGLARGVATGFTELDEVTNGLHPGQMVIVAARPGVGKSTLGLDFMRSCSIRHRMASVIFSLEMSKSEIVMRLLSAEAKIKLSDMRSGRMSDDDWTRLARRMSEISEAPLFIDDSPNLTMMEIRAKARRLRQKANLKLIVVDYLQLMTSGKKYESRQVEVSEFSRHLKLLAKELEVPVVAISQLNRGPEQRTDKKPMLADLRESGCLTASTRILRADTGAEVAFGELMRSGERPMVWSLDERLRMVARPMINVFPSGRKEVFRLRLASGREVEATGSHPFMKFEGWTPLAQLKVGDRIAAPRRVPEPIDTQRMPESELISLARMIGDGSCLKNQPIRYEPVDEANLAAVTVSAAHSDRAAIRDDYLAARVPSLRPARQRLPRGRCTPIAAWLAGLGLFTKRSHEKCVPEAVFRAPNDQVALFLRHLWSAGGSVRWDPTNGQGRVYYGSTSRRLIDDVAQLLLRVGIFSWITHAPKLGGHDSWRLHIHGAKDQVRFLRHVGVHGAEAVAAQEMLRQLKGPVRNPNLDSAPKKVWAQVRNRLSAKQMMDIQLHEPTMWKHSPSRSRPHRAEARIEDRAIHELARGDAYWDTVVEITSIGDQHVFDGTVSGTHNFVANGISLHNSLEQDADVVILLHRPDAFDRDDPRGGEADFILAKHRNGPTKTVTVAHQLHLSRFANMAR
# [14] = target: T3, Beta-2 adrenergic receptor (Homo sapiens, UniProt P07550); assay: Dose response for HTS for Beta-2AR agonists via FAP method from Powderset1.; assay type: functional
# [15] = target: T3, Beta-2 adrenergic receptor; assay: ADRB2 activation measured by internalization – cell-based, FAP fluorogen, flow cytometry, cherry pick 1, dose response (AID 588763); assay type: functional
# T3 sequence (P07550 whole entry): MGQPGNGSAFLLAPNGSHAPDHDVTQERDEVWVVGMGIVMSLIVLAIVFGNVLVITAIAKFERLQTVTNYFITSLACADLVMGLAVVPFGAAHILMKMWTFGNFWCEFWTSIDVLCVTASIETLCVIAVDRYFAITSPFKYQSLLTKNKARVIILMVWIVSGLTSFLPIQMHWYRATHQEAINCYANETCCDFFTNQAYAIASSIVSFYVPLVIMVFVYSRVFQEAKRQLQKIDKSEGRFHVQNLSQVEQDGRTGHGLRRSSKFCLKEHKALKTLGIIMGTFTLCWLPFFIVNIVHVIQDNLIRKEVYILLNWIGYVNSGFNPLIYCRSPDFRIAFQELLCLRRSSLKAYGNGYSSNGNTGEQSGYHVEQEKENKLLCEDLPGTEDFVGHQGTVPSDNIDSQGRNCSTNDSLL
# Sequence of Beta Lactamase (Q932Y6 whole entry): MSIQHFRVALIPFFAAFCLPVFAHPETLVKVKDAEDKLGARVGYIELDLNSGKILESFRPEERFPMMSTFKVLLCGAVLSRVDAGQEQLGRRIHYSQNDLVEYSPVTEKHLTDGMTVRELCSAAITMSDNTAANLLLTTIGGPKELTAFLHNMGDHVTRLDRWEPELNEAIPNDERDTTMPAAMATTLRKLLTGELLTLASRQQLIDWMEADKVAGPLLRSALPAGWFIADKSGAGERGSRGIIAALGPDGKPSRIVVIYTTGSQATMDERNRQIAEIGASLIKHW
# Sequence of Broad substrate specificity ATP-binding cassette transporter ABCG2 (Q9UNQ0 whole entry): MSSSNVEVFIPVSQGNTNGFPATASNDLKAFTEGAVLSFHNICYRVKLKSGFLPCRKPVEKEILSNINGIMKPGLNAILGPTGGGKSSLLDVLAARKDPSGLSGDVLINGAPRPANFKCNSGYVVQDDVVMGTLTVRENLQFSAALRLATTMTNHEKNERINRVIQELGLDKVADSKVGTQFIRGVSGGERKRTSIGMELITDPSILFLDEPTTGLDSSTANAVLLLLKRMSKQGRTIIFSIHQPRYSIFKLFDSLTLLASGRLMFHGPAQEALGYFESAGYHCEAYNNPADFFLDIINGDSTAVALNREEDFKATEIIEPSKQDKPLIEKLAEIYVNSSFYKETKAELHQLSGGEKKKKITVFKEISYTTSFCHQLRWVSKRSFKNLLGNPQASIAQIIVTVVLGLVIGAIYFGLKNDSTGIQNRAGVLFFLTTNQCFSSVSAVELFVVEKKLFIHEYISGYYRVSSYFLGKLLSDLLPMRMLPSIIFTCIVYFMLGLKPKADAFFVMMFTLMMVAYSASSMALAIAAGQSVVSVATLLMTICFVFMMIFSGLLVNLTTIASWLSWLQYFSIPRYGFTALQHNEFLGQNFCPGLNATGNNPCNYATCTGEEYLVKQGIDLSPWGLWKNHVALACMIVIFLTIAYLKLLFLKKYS
# Sequence of Apelin receptor (P35414 whole entry, the tested form may be a part): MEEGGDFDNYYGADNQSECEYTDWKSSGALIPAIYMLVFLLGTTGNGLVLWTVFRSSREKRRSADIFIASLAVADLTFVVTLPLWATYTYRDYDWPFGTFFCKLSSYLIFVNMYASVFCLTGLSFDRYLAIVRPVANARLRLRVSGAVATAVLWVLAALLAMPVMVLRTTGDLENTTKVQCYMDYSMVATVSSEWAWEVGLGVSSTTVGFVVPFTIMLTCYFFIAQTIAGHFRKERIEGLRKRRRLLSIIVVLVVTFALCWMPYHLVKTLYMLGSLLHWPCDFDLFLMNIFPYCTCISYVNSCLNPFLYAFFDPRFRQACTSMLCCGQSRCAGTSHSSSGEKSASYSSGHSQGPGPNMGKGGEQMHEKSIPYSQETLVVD
# Sequence of ATP-binding cassette sub-family B member 6 (Q9NP58 whole entry): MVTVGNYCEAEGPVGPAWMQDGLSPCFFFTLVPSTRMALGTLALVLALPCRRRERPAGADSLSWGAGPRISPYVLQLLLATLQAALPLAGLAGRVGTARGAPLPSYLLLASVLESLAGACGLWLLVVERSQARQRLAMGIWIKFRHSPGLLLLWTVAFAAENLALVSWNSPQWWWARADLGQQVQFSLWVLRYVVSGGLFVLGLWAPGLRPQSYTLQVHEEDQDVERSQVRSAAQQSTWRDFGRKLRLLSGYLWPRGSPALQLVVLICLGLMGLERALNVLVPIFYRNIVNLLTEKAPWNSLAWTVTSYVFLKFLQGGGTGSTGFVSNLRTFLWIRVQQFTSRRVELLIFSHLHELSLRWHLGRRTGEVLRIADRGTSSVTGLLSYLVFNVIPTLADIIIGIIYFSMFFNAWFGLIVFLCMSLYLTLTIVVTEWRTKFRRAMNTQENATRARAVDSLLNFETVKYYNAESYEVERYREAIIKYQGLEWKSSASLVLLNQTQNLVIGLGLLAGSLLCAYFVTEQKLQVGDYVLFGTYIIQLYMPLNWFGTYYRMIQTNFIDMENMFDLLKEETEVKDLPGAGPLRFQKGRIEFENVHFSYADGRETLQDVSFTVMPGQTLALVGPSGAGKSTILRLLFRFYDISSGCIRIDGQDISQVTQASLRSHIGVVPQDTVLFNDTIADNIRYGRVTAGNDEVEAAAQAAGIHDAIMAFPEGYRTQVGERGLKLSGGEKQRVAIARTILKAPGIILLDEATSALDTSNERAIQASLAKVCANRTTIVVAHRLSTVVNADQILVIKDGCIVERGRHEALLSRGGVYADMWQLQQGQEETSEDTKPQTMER
# Sequence of Nucleotide-binding oligomerization domain-containing protein 2 (Q9HC29 whole entry, the tested form may be a part): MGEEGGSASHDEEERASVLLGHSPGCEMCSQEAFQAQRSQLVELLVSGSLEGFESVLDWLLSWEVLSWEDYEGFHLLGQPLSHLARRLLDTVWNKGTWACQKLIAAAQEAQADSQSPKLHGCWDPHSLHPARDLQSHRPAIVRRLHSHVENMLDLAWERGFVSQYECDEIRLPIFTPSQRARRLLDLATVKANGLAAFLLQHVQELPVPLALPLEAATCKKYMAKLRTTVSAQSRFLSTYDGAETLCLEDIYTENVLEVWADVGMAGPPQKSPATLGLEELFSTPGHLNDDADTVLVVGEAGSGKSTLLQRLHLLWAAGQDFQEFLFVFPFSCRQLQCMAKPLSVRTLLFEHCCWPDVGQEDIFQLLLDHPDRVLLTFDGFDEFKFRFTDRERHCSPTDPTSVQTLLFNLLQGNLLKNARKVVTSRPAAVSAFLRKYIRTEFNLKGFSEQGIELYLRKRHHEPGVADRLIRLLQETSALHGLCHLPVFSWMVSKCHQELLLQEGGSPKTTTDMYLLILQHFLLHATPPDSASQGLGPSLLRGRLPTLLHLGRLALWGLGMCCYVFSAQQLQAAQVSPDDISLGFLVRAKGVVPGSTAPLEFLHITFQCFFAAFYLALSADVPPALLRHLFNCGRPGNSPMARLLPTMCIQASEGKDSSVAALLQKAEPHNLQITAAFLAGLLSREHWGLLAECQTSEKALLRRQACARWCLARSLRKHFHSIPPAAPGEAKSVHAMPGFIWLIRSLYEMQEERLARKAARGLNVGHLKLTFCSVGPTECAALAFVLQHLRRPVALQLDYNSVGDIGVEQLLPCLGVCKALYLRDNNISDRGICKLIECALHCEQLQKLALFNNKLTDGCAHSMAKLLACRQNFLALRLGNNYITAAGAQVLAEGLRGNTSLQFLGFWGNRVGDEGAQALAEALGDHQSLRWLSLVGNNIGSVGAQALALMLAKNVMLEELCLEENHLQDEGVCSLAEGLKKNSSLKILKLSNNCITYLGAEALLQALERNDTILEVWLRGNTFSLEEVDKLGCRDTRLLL
# Sequence of ATP-dependent translocase ABCB1 (P08183 whole entry): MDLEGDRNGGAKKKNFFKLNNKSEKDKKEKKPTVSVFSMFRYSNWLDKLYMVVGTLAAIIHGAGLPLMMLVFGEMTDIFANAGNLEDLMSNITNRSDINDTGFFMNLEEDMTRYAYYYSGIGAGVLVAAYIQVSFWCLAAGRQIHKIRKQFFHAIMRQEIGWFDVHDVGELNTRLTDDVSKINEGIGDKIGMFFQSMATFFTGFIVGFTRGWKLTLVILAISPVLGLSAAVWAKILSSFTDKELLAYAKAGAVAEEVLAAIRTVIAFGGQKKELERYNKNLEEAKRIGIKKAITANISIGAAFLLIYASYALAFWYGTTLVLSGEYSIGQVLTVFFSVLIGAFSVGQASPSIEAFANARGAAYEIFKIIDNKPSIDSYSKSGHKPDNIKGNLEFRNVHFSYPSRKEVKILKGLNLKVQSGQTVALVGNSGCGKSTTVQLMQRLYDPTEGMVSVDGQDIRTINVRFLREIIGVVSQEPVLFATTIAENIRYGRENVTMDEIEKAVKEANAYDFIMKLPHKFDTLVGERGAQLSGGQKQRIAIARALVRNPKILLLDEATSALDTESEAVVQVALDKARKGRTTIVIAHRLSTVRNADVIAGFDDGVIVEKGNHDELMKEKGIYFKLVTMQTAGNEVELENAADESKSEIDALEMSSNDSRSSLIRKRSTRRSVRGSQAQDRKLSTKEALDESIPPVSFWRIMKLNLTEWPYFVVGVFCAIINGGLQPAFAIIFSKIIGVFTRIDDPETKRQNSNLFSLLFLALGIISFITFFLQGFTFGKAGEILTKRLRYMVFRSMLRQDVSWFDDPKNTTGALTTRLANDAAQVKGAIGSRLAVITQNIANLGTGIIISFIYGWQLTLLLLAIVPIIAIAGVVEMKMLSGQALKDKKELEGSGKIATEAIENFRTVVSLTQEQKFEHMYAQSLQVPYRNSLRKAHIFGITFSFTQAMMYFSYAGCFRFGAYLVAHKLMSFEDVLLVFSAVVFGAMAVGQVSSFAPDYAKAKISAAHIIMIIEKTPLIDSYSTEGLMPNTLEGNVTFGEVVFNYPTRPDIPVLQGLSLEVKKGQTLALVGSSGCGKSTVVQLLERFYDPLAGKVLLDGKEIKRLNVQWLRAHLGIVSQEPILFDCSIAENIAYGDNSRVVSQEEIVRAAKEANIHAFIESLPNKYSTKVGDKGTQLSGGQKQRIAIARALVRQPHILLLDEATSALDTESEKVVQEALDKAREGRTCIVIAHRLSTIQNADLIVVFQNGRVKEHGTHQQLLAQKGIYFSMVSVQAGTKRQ
smiles,measurement,setting,value
CCOc1ccc(NC(=O)c2cccc3c2C(=O)N(CCOC)C3)cc1,EC50,[1],8.31 µM (inactive)
same,EC50,[2],1.6 µM (active)
Cc1ccc(S(=O)(=O)N(C)C[C@@H]2OCCCC[C@H](C)Oc3ccc(NS(=O)(=O)c4c(C)noc4C)cc3C(=O)N([C@H](C)CO)C[C@@H]2C)cc1,AC50,A549,25.1 µM (active)
Cc1ccccc1CS(=O)(=O)c1ncc(Cl)c(C(=O)Nc2ccc(F)cc2)n1,IC50,Beta-galactosidase,> 66.6 µM (inactive)
same,AC50,[3],2.41 µM (active)
same,EC50,[4],> 20 µM (inactive)
same,IC50,HEK293 [5],10 µM (inactive)
same,IC50,Beta Lactamase,6.25 µM (active)
same,EC50,Protein RecA,2.79 µM (active)
same,AC50,[6],40.4 µM (active)
same,AC50,[7],3 µM (active)
same,AC50,[8],2.2 µM (active)
same,EC50,[9],30.5 µM (active)
same,IC50,HEK293 [10],> 20 µM (inactive)
same,IC50,Apelin receptor,19.7 µM (active)
same,IC50,CHO,4.01 µM (active)
same,AC50,[11],11.5 µM (active)
same,EC50,HEK293 [12],8.92 µM (active)
same,AC50,[13],1.22 µM (active)
CCc1ccc(CN2CCC(Oc3ccc(C(=O)N4CCCCC4)cc3)CC2)cc1,EC50,[14],1.83 µM (active)
same,EC50,[15],1.75 µM (active)
